Laboratory results as given in PubChem BioAssay AID2060501 (Molecular Pharmacology Branch, DTP, NCI, 2025).

Test system: 282377-053-R-J1-PDC complex spheroids, viability
Assay: Anticancer human tumor 282377-053-R-J1-PDC patient-derived colon adenocarcinoma cell line growth inhibition [GQUAD]
Settings: for IC50: curve of first compound; for viability, T/C: stronger effect = lower value; active = viability on the fitted dose curve at most 10% of control; inactive = the rest
How it was run: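 Multi-cell-type spheroids of tumor cells with HUVEC and mesenchymal stem cells, treated with drug combinations. Concentrations descend in half-log steps from near clinical Cmax, or from 10 microM where Cmax is unknown; viability read-out.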

[1] = second compound 0.0316 µM, first compound 0.0316 µM
[2] = second compound 0.0316 µM, first compound 0.1 µM
[3] = second compound 0.0316 µM, first compound 0.316 µM
[4] = second compound 0.0316 µM, first compound 1 µM
[5] = second compound 0.0316 µM, first compound 3.16 µM
[6] = second compound 0.0316 µM, first compound 10 µM
[7] = second compound 0.1 µM, first compound 0.0316 µM
[8] = second compound 0.1 µM, first compound 0.1 µM
[9] = second compound 0.1 µM, first compound 0.316 µM
[10] = second compound 0.1 µM, first compound 1 µM
[11] = second compound 0.1 µM, first compound 3.16 µM
[12] = second compound 0.1 µM, first compound 10 µM
[13] = second compound 0.316 µM, first compound 0.0316 µM
[14] = second compound 0.316 µM, first compound 0.1 µM
[15] = second compound 0.316 µM, first compound 0.316 µM
[16] = second compound 0.316 µM, first compound 1 µM
[17] = second compound 0.316 µM, first compound 3.16 µM
[18] = second compound 0.316 µM, first compound 10 µM
[19] = second compound 1 µM, first compound 0.0316 µM
[20] = second compound 1 µM, first compound 0.1 µM
[21] = second compound 1 µM, first compound 0.316 µM
[22] = second compound 1 µM, first compound 1 µM
[23] = second compound 1 µM, first compound 3.16 µM
[24] = second compound 1 µM, first compound 10 µM
[25] = second compound 3.16 µM, first compound 0.0316 µM
[26] = second compound 3.16 µM, first compound 0.1 µM
[27] = second compound 3.16 µM, first compound 0.316 µM
[28] = second compound 3.16 µM, first compound 1 µM
[29] = second compound 3.16 µM, first compound 3.16 µM
[30] = second compound 3.16 µM, first compound 10 µM
[31] = second compound 10 µM, first compound 0.0316 µM
[32] = second compound 10 µM, first compound 0.1 µM
[33] = second compound 10 µM, first compound 0.316 µM
[34] = second compound 10 µM, first compound 1 µM
[35] = second compound 10 µM, first compound 3.16 µM
[36] = second compound 10 µM, first compound 10 µM
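Note: spheroids exposed to compounds for 7 days before readout.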
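Throughout, for viability, T/C: percent of vehicle DMSO control viability with 100% = untreated-like growth.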

C=CC(=O)N1CCN(c2nc(=O)n(-c3c(C)ccnc3C(C)C)c3nc(-c4c(O)cccc4F)c(F)cc23)C(C)C1 (stereo unspecified) + Cc1cnc(CNC(=O)c2c(=O)c3ccc(N4CCCN(C)CC4)nc3n3c2sc2ccccc23)cn1
3740 nM: IC50 (second compound 10 µM)
> 10000 nM: IC50 (second compound 0.0316 µM) | IC50 (second compound 0.1 µM) | IC50 (second compound 0.316 µM) | IC50 (second compound 1 µM) | IC50 (second compound 3.16 µM)
inactive: viability, T/C [1] 129% | viability, T/C [2] 116% | viability, T/C [3] 115% | viability, T/C [4] 116% | viability, T/C [5] 103% | viability, T/C [6] 100% | viability, T/C [7] 119% | viability, T/C [8] 91.7% | viability, T/C [9] 115% | viability, T/C [10] 122% | viability, T/C [11] 110% | viability, T/C [12] 94.1% | viability, T/C [13] 89.8% | viability, T/C [14] 98.9% | viability, T/C [15] 102% | viability, T/C [16] 98.3% | viability, T/C [17] 103% | viability, T/C [18] 90.8% | viability, T/C [19] 77.2% | viability, T/C [20] 64.2% | viability, T/C [21] 74.7% | viability, T/C [22] 80.4% | viability, T/C [23] 76% | viability, T/C [24] 57.4% | viability, T/C [25] 60.2% | viability, T/C [26] 51% | viability, T/C [27] 63.2% | viability, T/C [28] 53.6% | viability, T/C [29] 61.9% | viability, T/C [30] 53.6% | viability, T/C [31] 52.2% | viability, T/C [32] 40.8% | viability, T/C [33] 58.4% | viability, T/C [34] 56.6% | viability, T/C [35] 56.9% | viability, T/C [36] 33%

CC1COCCN1c1cc(-c2ccnn2C)c2ccnc(-c3ccn[nH]3)c2n1 (stereo unspecified) + Cc1cnc(CNC(=O)c2c(=O)c3ccc(N4CCCN(C)CC4)nc3n3c2sc2ccccc23)cn1
< 31.6 nM: IC50 (second compound 0.316 µM) | IC50 (second compound 1 µM) | IC50 (second compound 3.16 µM) | IC50 (second compound 10 µM)
97.4 nM: IC50 (second compound 0.0316 µM)
inactive: viability, T/C [1] 97% | viability, T/C [2] 46.1% | viability, T/C [3] 36% | viability, T/C [4] 27.8% | viability, T/C [5] 24.1% | viability, T/C [6] 21.2% | viability, T/C [7] 65.8% | viability, T/C [8] 43.5% | viability, T/C [9] 34.4% | viability, T/C [10] 25.5% | viability, T/C [11] 23.7% | viability, T/C [12] 16.2% | viability, T/C [13] 41.9% | viability, T/C [14] 40.9% | viability, T/C [15] 36.1% | viability, T/C [16] 26.2% | viability, T/C [17] 21.5% | viability, T/C [18] 18.4% | viability, T/C [19] 40.4% | viability, T/C [20] 32% | viability, T/C [21] 26.8% | viability, T/C [22] 26.2% | viability, T/C [23] 23.5% | viability, T/C [24] 16.3% | viability, T/C [25] 35.4% | viability, T/C [26] 32.8% | viability, T/C [27] 25.4% | viability, T/C [28] 22.8% | viability, T/C [29] 21.1% | viability, T/C [30] 15.8% | viability, T/C [31] 26.9% | viability, T/C [32] 22.5% | viability, T/C [33] 27.1% | viability, T/C [34] 23% | viability, T/C [35] 21.5% | viability, T/C [36] 15.6%
76.9 nM: IC50 (second compound 0.1 µM)

CC1COCCN1c1cc(C2(O)CC3CCC(C2)O3)c2cnn(-c3ccn[nH]3)c2n1 (stereo unspecified) + Cc1cnc(CNC(=O)c2c(=O)c3ccc(N4CCCN(C)CC4)nc3n3c2sc2ccccc23)cn1
134 nM: IC50 (second compound 0.0316 µM)
active: viability, T/C [36] 0.6%
73.9 nM: IC50 (second compound 0.1 µM)
< 31.6 nM: IC50 (second compound 0.316 µM) | IC50 (second compound 1 µM) | IC50 (second compound 3.16 µM) | IC50 (second compound 10 µM)
inactive: viability, T/C [1] 96.4% | viability, T/C [2] 49.5% | viability, T/C [3] 39.7% | viability, T/C [4] 24.6% | viability, T/C [5] 20.5% | viability, T/C [6] 12.6% | viability, T/C [7] 71.9% | viability, T/C [8] 41.3% | viability, T/C [9] 27.6% | viability, T/C [10] 26.8% | viability, T/C [11] 21.8% | viability, T/C [12] 15.1% | viability, T/C [13] 50.1% | viability, T/C [14] 34.8% | viability, T/C [15] 28.8% | viability, T/C [16] 22.9% | viability, T/C [17] 17.7% | viability, T/C [18] 15% | viability, T/C [19] 42% | viability, T/C [20] 25.9% | viability, T/C [21] 28.7% | viability, T/C [22] 23.1% | viability, T/C [23] 21.8% | viability, T/C [24] 14.3% | viability, T/C [25] 33.6% | viability, T/C [26] 23.4% | viability, T/C [27] 23.8% | viability, T/C [28] 21.7% | viability, T/C [29] 18.6% | viability, T/C [30] 10.6% | viability, T/C [31] 32.8% | viability, T/C [32] 20.1% | viability, T/C [33] 22.2% | viability, T/C [34] 18% | viability, T/C [35] 17%
